Reference: US8202885B2, “Bridged six-membered ring compounds” (Actelion Pharmaceuticals Ltd., priority 2007, dated 2012)

tested on: human Cav3.1 Cav3.2 or Cav3.3 channel; assay: In vitro assay T channel (FLIPR calcium fluorescence); type: cell-based; settings: HEK293 cells expressing human Cav3.1, Cav3.2 or Cav3.3; 10 mM Ca2+-induced fluo-4 fluorescence; determined up to 10 μM; read-out: T channel antagonistic activity IC50
Procedure, shortened: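 IC50 (nM) is the antagonist concentration halving the area under the fluorescence peak evoked by 10 mM Ca2+, relative to vehicle, with testing up to 10 μM. Fluo-4-loaded HEK293 cells expressing each human Cav3 subtype received compound 3 min before Ca2+ addition (TEA-based buffer, pH 7.2); signal monitored 8 min at 2 s intervals.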

| Compound | IC50 [µM] |
| --- | --- |
| CC(C)Oc1cccc2nc(CCCN(C)CC[C@]3(O)C[C@H]4CC[C@@H]3C=C4c3ccccc3)[nH]c12 (relative stereo) [Example 33, rac-(1R*,2R*,4R*)-2-(2-{[3-(7-Isopropoxy-1H-benzoimidazol-2-yl)-propyl]-methyl-amino}-ethyl)-5-phenyl-bicyclo[2.2.2]oct-5-en-2-ol] | 2.99 |
| CN(CCCc1nc2cccc(O)c2[nH]1)CC[C@]1(O)C[C@H]2CC[C@@H]1C=C2c1ccccc1 (relative stereo) [Example 34, rac-(1R*,2R*,4R*)-2-(3-{[2-(2-Hydroxy-5-phenyl-bicyclo[2.2.2]oct-5-en-2-yl)-ethyl]-methyl-amino}-propyl)-3H-benzoimidazol-4-ol] | 2.56 |
| CC(C)C(=O)Oc1cccc2nc(CCCN(C)CC[C@]3(OC(=O)C(C)C)C[C@H]4CC[C@@H]3C=C4c3ccccc3)[nH]c12 (relative stereo) [Example 34A, rac-Isobutyric acid (1R*,2R*,4R*)-2-(2-{[3-(7-isobutyryloxy-1H-benzoimidazol-2-yl)-propyl]-methyl-amino}-ethyl)-5-phenyl-bicyclo[2.2.2]oct-5-en-2-yl ester] | 4.33 |
| COc1cccc2c1nc(CCCN(C)CC[C@]1(O)C[C@H]3CC[C@@H]1C=C3c1ccccc1)n2C (relative stereo) [Example 37, rac-(1R*,2R*,4R*)-2-(2-{[3-(4-Methoxy-1-methyl-1H-benzoimidazol-2-yl)-propyl]-methyl-amino}-ethyl)-5-phenyl-bicyclo[2.2.2]oct-5-en-2-ol] | 6.65 |
| CCOc1ccc(CCN(CC)CC[C@]2(O)C[C@H]3CC[C@@H]2C=C3c2ccccc2)cc1OCC (relative stereo) [Example 38, rac-(1R*,2R*,4R*)-2-(2-{[2-(3,4-Diethoxy-phenyl)-ethyl]-ethyl-amino}-ethyl)-5-phenyl-bicyclo[2.2.2]oct-5-en-2-ol] | 6.7 |
| CCOc1ccc(CCN(CC)CC[C@]2(OC(=O)C(C)C)C[C@H]3CC[C@@H]2C=C3c2ccccc2)cc1OCC (relative stereo) [Example 38A, rac-Isobutyric acid (1R*,2R*,4R*)-2-(2-{[2-(3,4-diethoxy-phenyl)-ethyl]-ethyl-amino}-ethyl)-5-phenyl-bicyclo[2.2.2]oct-5-en-2-yl ester] | 2.51 |
| COc1ccc(CCCN(C)CC[C@]2(O)C[C@H]3CC[C@@H]2C=C3c2ccccc2)cc1OC (relative stereo) [Example 39, rac-(1R*,2R*,4R*)-2-(2-{[3-(3,4-Dimethoxy-phenyl)-propyl]-methyl-amino}-ethyl)-5-phenyl-bicyclo[2.2.2]oct-5-en-2-ol] | > 10 |
| COc1ccc(CCCN(C)CC[C@]2(OC(=O)C(C)C)C[C@H]3CC[C@@H]2C=C3c2ccccc2)cc1OC (relative stereo) [Example 39A, rac-Isobutyric acid (1R*,2R*,4R*)-2-(2-{[3-(3,4-dimethoxy-phenyl)-propyl]-methyl-amino}-ethyl)-5-phenyl-bicyclo[2.2.2]oct-5-en-2-yl ester] | 7.49 |
| CCOc1ccc(CCCN(C)CC[C@]2(O)C[C@H]3CC[C@@H]2C=C3c2ccccc2)cc1OCC (relative stereo) [Example 40, rac-(1R*,2R*,4R*)-2-(2-{[3-(3,4-Diethoxy-phenyl)-propyl]-methyl-amino}-ethyl)-5-phenyl-bicyclo[2.2.2]oct-5-en-2-ol] | 3.33 |
| CCOc1ccc(CCCN(C)CC[C@]2(OC(=O)C(C)C)C[C@H]3CC[C@@H]2C=C3c2ccccc2)cc1OCC (relative stereo) [Example 40A, rac-Isobutyric acid (1R*,2R*,4R*)-2-(2-{[3-(3,4-diethoxy-phenyl)-propyl]-methyl-amino}-ethyl)-5-phenyl-bicyclo[2.2.2]oct-5-en-2-yl ester] | 8.93 |
| CN(CCCc1cnc2occc2c1)CC[C@]1(O)C[C@H]2CC[C@@H]1C=C2c1ccccc1 (relative stereo) [Example 41, rac-(1R*,2R*,4R*)-2-{2-[(3-Furo[2,3-b]pyridin-5-yl-propyl)-methyl-amino]-ethyl}-5-phenyl-bicyclo[2.2.2]oct-5-en-2-ol] | > 10 |
| CC(C)C(=O)O[C@@]1(CCN(C)CCCc2cnc3occc3c2)C[C@H]2CC[C@@H]1C=C2c1ccccc1 (relative stereo) [Example 41A, rac-Isobutyric acid (1R*,2R*,4R*)-2-{2-[(3-furo[2,3-b]pyridin-5-yl-propyl)-methyl-amino]-ethyl}-5-phenyl-bicyclo[2.2.2]oct-5-en-2-yl ester] | 8.26 |
| Cc1cc2cc(CCCN(C)CC[C@]3(O)C[C@H]4CC[C@@H]3C=C4c3ccccc3)cnc2o1 (relative stereo) [Example 42, rac-(1R*,2R*,4R*)-2-(2-{Methyl-[3-(2-methyl-furo[2,3-b]pyridin-5-yl)-propyl]-amino}-ethyl)-5-phenyl-bicyclo[2.2.2]oct-5-en-2-ol] | > 10 |

Further compounds by falling IC50, results first:

| IC50 [µM] | Compound |
| --- | --- |
| 2.45 | COc1cccc2[nH]c(CCCN(C)CC[C@]3(OC(=O)CC(F)(F)F)C[C@H]4CCC[C@@H]3C=C4c3ccccc3)nc12 (relative stereo) [Example 36B, rac-3,3,3-Trifluoro-propionic acid (1R*,5R*,6R*)-6-(2-{[3-(4-methoxy-1H-benzoimidazol-2-yl)-propyl]-methyl-amino}-ethyl)-8-phenyl-bicyclo[3.2.2]non-8-en-6-yl ester] |
| 1.66 | CC(C)Oc1cccc2nc(CCCN(C)CC[C@]3(OC(=O)C(C)C)C[C@H]4CC[C@@H]3C=C4c3ccccc3)[nH]c12 (relative stereo) [Example 33A, rac-Isobutyric acid (1R*,2R*,4R*)-2-(2-{[3-(7-isopropoxy-1H-benzoimidazol-2-yl)-propyl]-methyl-amino}-ethyl)-5-phenyl-bicyclo[2.2.2]oct-5-en-2-yl ester] |
| 1.33 | CC(C)C(=O)O[C@@]1(CCN(C)CCCc2nc3cccc(O)c3[nH]2)C[C@H]2CC[C@@H]1C=C2c1ccccc1 (relative stereo) [Example 35A, rac-Isobutyric acid (1R*,2R*,4R*)-2-(2-{[3-(7-hydroxy-1H-benzoimidazol-2-yl)-propyl]-methyl-amino}-ethyl)-5-phenyl-bicyclo[2.2.2]oct-5-en-2-yl ester] |
| 1.33 | COc1cccc2[nH]c(CCCN(C)CC[C@]3(O)C[C@H]4CCC[C@@H]3C=C4c3ccccc3)nc12 (relative stereo) [Example 36, rac-(1R*,5R*,6R*)-6-(2-{[3-(4-Methoxy-1H-benzoimidazol-2-yl)-propyl]-methyl-amino}-ethyl)-8-phenyl-bicyclo[3.2.2]non-8-en-6-ol] |
| 1.01 | COc1cccc2[nH]c(CCCN(C)CC[C@]3(OC(=O)C(C)C)C[C@H]4CCC[C@@H]3C=C4c3ccccc3)nc12 (relative stereo) [Example 36A, rac-Isobutyric acid (1R*,5R*,6R*)-6-(2-{[3-(4-methoxy-1H-benzoimidazol-2-yl)-propyl]-methyl-amino}-ethyl)-8-phenyl-bicyclo[3.2.2]non-8-en-6-yl ester] |
| 0.935 | COc1cccc2c1nc(CCCN(C)CC[C@]1(OC(=O)C(C)C)C[C@H]3CC[C@@H]1C=C3c1ccccc1)n2C (relative stereo) [Example 37A, rac-Isobutyric acid (1R*,2R*,4R*)-2-(2-{[3-(4-methoxy-1-methyl-1H-benzoimidazol-2-yl)-propyl]-methyl-amino}-ethyl)-5-phenyl-bicyclo[2.2.2]oct-5-en-2-yl ester] |
